In US7629156B2, “Ethanol production in fermentation of mixed sugars containing xylose” (E.I. du Pont de Nemours and Company, priority 2006, dated 2009):

Legend:
ZW658 strain [1] = test: 1-liter fermentor, ZW658 on high concentration glucose and xylose with sorbitol or glutamate; assay type: cell-based, Zymomonas mobilis
Experimental: (§1) Approximately 1 ml of well mixed sample was obtained from flask or fermentor. First the sample absorbance was measured directly with a spectrophotometer (Amersham Biosciences Ultrospec 3300pro, GE Healthcare, Piscataway, N.J., USA). If the reading was lower than 0.6 unit, no dilution was needed. If the reading was higher than 0.6 unit, the sample was diluted with culture medium until the actual reading was in the range of 0.1 to 0.6 unit. The original OD was calculated from the dilution ratio and the actual reading.
(§2) The analysis of sugars, acetate, ethanol, and other by-products was done with an Agilent 1100 series HPLC and Agilent ChemStation software for LC 3D. The column was BioRad Aminex HPX-87H(HPLC Organic Analysis Column 125-0140) with BioRad Micro-Guard Cartridge Cation-H (125-0129). The operating conditions were:
(§3) Glycerol stock of seed frozen at −80° C. was thawed, then inoculated into sterile culture tubes with mixture of 60 g/L glucose, 20 g/L xylose, 10 g/L yeast extract (YE), 10 g/L KH2PO4, 2 g/L (NH4)2SO4, and 1 g/L MgSO4. Initial pH was adjusted to 5.5 with 4 N KOH. This revival culture was grown statically overnight at 37° C. It was transferred into shake flasks with 75 g/L glucose, 25 g/L xylose, 10 g/L yeast extract (YE), 10 g/L KH2PO4, 2 g/L (NH4)2SO4, and 1 g/L MgSO4. Initial pH was adjusted to 5.5 with 4 N KOH. Growth was monitored by measuring OD600. When the OD reached approximately 5, a certain volume of the seed was withdrawn into a sterile syringe for inoculation.
In a sterilized 1-liter fermentor (BIOSTAT® B-DCU system, Sartorius BBI System Inc., Bethlehem, Pa., USA), 50 ml of ZW658 strain seed culture at Optical Density of approximately 5 (measured at 600 nm) was inoculated into 450 ml of aqueous solution containing sugars and medium. The final mixed broth contained 100 g/L glucose, 85.1 g/L xylose, 10 g/L yeast extract (YE), 2 g/L KH2PO4, and 10 mM sorbitol. pH was adjusted to 5.5 with 4 N KOH solution. Mixing speed was set at 150 rpm. Fermentation was conducted at 33° C. and pH 5.5. Samples were taken periodically. Samples were filtered through 0.22 micron filters, and the filtrates were analyzed by HPLC as described in General Methods for compounds including glucose, xylose, ethanol, and acetate. Samples were also diluted with medium (as described in General Methods) and the OD600 was measured to monitor cell growth. […] The by-product xylitol concentration was 0.67 g/L at 29 hr, and increased to 0.95 g/L at 64 hr.
In a sterilized 1-liter fermentor (BIOSTAT® B-DCU system, Sartorius BBI System Inc., Bethlehem, Pa., USA), 50 ml of ZW658 strain seed culture at OD600 of approximately 5 was inoculated into 450 ml of aqueous solution containing sugars and medium. The final mixed broth contained 98.0 g/L glucose, 81.2 g/L xylose, 10 g/L yeast extract (YE), 2 g/L KH2PO4, and 10 mM potassium glutamate. pH was adjusted to 5.5 with 4 N KOH solution. Mixing speed was set at 150 rpm. Fermentation was conducted at 33° C. and pH 5.5. Samples were taken periodically. Samples were filtered through 0.22 micron filters, and the filtrates were analyzed by HPLC as described in General Methods for compounds including glucose, xylose, xylitol, ethanol, and acetic acid. Samples were also diluted with medium (as described in General Methods) and the OD600 was measured to monitor cell growth. […] However, xylose was not well-utilized, cell growth and ethanol production were reduced as compared to that in the presence of sorbitol (Example 4), and xylitol production increased.

ZW658 strain [2] = test: Flask fermentation of ZW658 on glucose and xylose with sorbitol 10-200 mM; assay type: cell-based, Zymomonas mobilis
Experimental: as §1, §2, §3
In five sterilized 125 ml Erlenmeyer culture flasks (Cat. No. 30180-036, VWR International, USA), 10 ml of ZW658 strain seed culture at Optical Density of approximately 5 (measured at 600 nm; OD600) was inoculated into each flask with 100 ml of aqueous solution containing 110 g/L glucose, 90 g/L xylose, 10 g/L yeast extract (YE), 2 g/L KH2PO4, 4 g/L KHCO3, and various concentrations of sorbitol (10, 20, 50, 100, and 200 mM). Initial pH was adjusted to 5.5 with 4 NH3PO4 solution. Mixing speed was set at 150 rpm. Fermentation was conducted at 33° C. and pH was not controlled. Samples were taken periodically. Samples were filtered through 0.22 micron filters, and the filtrates were analyzed by HPLC as described in General Methods for ethanol. Samples were diluted with medium (as described in General Methods) and the OD600 was measured to monitor cell growth. […] After 24 hours, the OD600 were 7.74, 7.86, 8.04, 7.82, and 7.12, respectively, for sorbitol concentrations of 10, 20, 50, 100, and 200 mM. After 48 hours, the OD600 were 8.30, 8.26, 8.84, 8.12, and 7.72, respectively, for sorbitol concentrations of 10, 20, 50, 100, and 200 mM. […] Ethanol production was slightly slower with 100 or 200 mM sorbitol than with 10, 20, or 50 mM sorbitol, although all cultures reached about the same final amount of ethanol produced. […] Thus 10 mM sorbitol is adequate to provide maximal ethanol production under these conditions.

[3] = after 29 hours, 100 g/L glucose, 85.1 g/L xylose, 10 mM sorbitol, 33° C., pH 5.5

OC[C@@H](O)[C@@H](O)[C@H](O)[C@@H](O)CO [sorbitol]
OD600 cells grew to (ZW658 strain [1]; 100 g/L glucose, 85.1 g/L xylose, 10 mM sorbitol, 33° C., pH 5.5): 13
reduction of xylitol with addition of sorbitol (ZW658 strain [1]; Examples 4 and 5, with vs without sorbitol): about 3 fold
ethanol concentration (ZW658 strain [1]; [3]): 83.9 g/L
glucose concentration (ZW658 strain [1]; [3]): 0 g/L
xylose concentration (ZW658 strain [1]; [3]): 2.08 g/L
by-product xylitol concentration (ZW658 strain [1]; at 29 hr, 10 mM sorbitol): 0.67 g/L
by-product xylitol concentration (ZW658 strain [1]; at 64 hr, 10 mM sorbitol): 0.95 g/L
time to complete utilization of 85 g/L xylose (ZW658 strain [1]; sugars mixture with 100 g/L glucose, no acetate, in the presence of sorbitol): ≤ 30 h
effect on growth (ZW658 strain [1]; with vs without 10 mM sorbitol): doubled the growth
effect on lag time (ZW658 strain [1]; with vs without 10 mM sorbitol): significantly reduced the lag time
xylitol (ZW658 strain [2]; 10-200 mM sorbitol, any of the samples): No xylitol was detected
OD600 (ZW658 strain [2]; after 24 hours, 10 mM sorbitol, 110 g/L glucose, 90 g/L xylose): 7.74
OD600 (ZW658 strain [2]; after 24 hours, 20 mM sorbitol): 7.86
OD600 (ZW658 strain [2]; after 24 hours, 50 mM sorbitol): 8.04
OD600 (ZW658 strain [2]; after 24 hours, 100 mM sorbitol): 7.82
OD600 (ZW658 strain [2]; after 24 hours, 200 mM sorbitol): 7.12
OD600 (ZW658 strain [2]; after 48 hours, 10 mM sorbitol): 8.30
OD600 (ZW658 strain [2]; after 48 hours, 20 mM sorbitol): 8.26
OD600 (ZW658 strain [2]; after 48 hours, 50 mM sorbitol): 8.84
OD600 (ZW658 strain [2]; after 48 hours, 100 mM sorbitol): 8.12
OD600 (ZW658 strain [2]; after 48 hours, 200 mM sorbitol): 7.72
